# Patent US10597388B2, “Pyridazinone herbicides” (FMC CORPORATION, priority 2014, dated 2020)
# Experiments:
# Assay in all cases: Test D controlled growth environment herbicide test, pre- and postemergence
# Format in all cases: in vivo
# [1] = tested on: bromegrass, downy (downy bromegrass, Bromus tectorum)
# In short: (§1)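 Pre-emergence: seeds sown in silt loam soil were sprayed with compound in a non-phytotoxic solvent mix containing surfactant. Post-emergence: plants at 2 to 18 cm (1- to 4-leaf stage) in peat moss/vermiculite medium got the same formulation. Visual 0–100 rating versus controls after 14 to 21 d.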
# [2] = tested on: bluegrass (annual bluegrass, Poa annua)
# In short: as §1
# [3] = tested on: oilseed rape (Brassica napus)
# In short: as §1
# [4] = tested on: radish, wild (wild radish, Raphanus raphanistrum)
# In short: as §1
# [5] = tested on: oat, wild (wild oat, Avena fatua)
# In short: as §1
# [6] = tested on: canarygrass (Phalaris minor)
# In short: as §1
# [7] = tested on: mustard, wild (wild mustard, Sinapis arvensis)
# In short: as §1
# [8] = tested on: chamomile (scentless chamomile, Matricaria inodora)
# In short: as §1
# [9] = tested on: wheat, spring (spring wheat, Triticum aestivum)
# In short: as §1
# [10] = tested on: field violet (Viola arvensis)
# In short: as §1
# [11] = tested on: buckwheat, wild (wild buckwheat, Polygonum convolvulus)
# In short: as §1
# [12] = tested on: field poppy (Papaver rhoeas)
# In short: as §1
# [13] = tested on: Russian thistle (Salsola kali)
# In short: as §1
# [14] = Postemergence, 31 g ai/ha, scale 0 to 100 (0 no effect, 100 complete control)
# [15] = Postemergence, 125 g ai/ha, visual rating on scale 0 (no effect) to 100 (complete control), 14 to 21 d
# [16] = Postemergence, 250 g ai/ha, scale 0 to 100 (0 no effect, 100 complete control)
# [17] = Preemergence, 62 g ai/ha, scale 0 to 100 (0 no effect, 100 complete control)
# [18] = Preemergence, 125 g ai/ha, scale 0 to 100 (0 no effect, 100 complete control)
# [19] = Preemergence, 250 g ai/ha, scale 0 to 100 (0 no effect, 100 complete control)
# [20] = postemergence, 62 g ai/ha, scale 0 to 100, 0 no effect, 100 complete control
smiles,measurement,setting,value
CCC(=O)Oc1c(C)nn(C)c(=O)c1-c1c(C)sc2ccc(Cl)cc12 [Compound 109],"Bromegrass, Downy plant response rating",[1]; [14],30
same,"Plant response rating, Bromegrass, Downy",[1]; [15],60
same,"Plant response rating, Bromegrass, Downy",[1]; [16],75
same,"Plant response rating (scale of 0 to 100), Bromegrass, Downy","[1]; Preemergence, 31 g ai/ha",0
same,"Plant response rating, Bromegrass, Downy",[1]; [17],30
same,"Plant response rating, Bromegrass, Downy",[1]; [18],65
same,"Plant response rating, Bromegrass, Downy",[1]; [19],65
same,"Plant response rating, Bromegrass, Downy",[1]; [20],30
same,Bluegrass plant response rating,[2]; [14],5
same,"Plant response rating, Bluegrass",[2]; [15],25
same,"Plant response rating, Bluegrass",[2]; [16],45
same,"Plant response rating (scale of 0 to 100), Bluegrass","[2]; Preemergence, 31 g ai/ha",10
same,"Plant response rating, Bluegrass",[2]; [17],20
same,"Plant response rating, Bluegrass",[2]; [18],30
same,"Plant response rating, Bluegrass",[2]; [19],60
same,"Plant response rating, Bluegrass",[2]; [20],15
same,Oilseed Rape plant response rating,[3]; [14],65
same,"Plant response rating, Oilseed Rape",[3]; [15],75
same,"Plant response rating, Oilseed Rape",[3]; [16],85
same,"Plant response rating (scale of 0 to 100), Oilseed Rape","[3]; Preemergence, 31 g ai/ha",15
same,"Plant response rating (scale of 0 to 100), Oilseed Rape","[3]; Preemergence, 62 g ai/ha",40
same,"Plant response rating, Oilseed Rape",[3]; [18],75
same,"Plant response rating, Oilseed Rape",[3]; [19],85
same,"Plant response rating, Oilseed Rape",[3]; [20],70
same,"Radish, Wild plant response rating",[4]; [14],75
same,"Plant response rating, Radish, Wild",[4]; [15],90
same,"Plant response rating, Radish, Wild",[4]; [16],100
same,"Plant response rating (scale of 0 to 100), Radish, Wild","[4]; Preemergence, 31 g ai/ha",25
same,"Plant response rating (scale of 0 to 100), Radish, Wild","[4]; Preemergence, 62 g ai/ha",75
same,"Plant response rating, Radish, Wild",[4]; [18],90
same,"Plant response rating, Radish, Wild",[4]; [19],95
same,"Plant response rating, Radish, Wild",[4]; [20],75
same,"Oat, Wild plant response rating",[5]; [14],95
same,"Plant response rating, Oat, Wild",[5]; [15],95
same,"Plant response rating, Oat, Wild",[5]; [16],100
same,"Plant response rating (scale of 0 to 100), Oat, Wild","[5]; Preemergence, 31 g ai/ha",75
same,"Plant response rating (scale of 0 to 100), Oat, Wild","[5]; Preemergence, 62 g ai/ha",80
same,"Plant response rating, Oat, Wild",[5]; [18],90
same,"Plant response rating, Oat, Wild",[5]; [19],90
same,"Plant response rating, Oat, Wild",[5]; [20],95
same,Canarygrass plant response rating,[6]; [14],40
same,"Plant response rating, Canarygrass",[6]; [15],80
same,"Plant response rating, Canarygrass",[6]; [16],90
same,"Plant response rating (scale of 0 to 100), Canarygrass","[6]; Preemergence, 31 g ai/ha",35
same,"Plant response rating (scale of 0 to 100), Canarygrass","[6]; Preemergence, 62 g ai/ha",75
same,"Plant response rating, Canarygrass",[6]; [18],90
same,"Plant response rating, Canarygrass",[6]; [19],98
same,"Plant response rating, Canarygrass",[6]; [20],55
same,"Mustard, Wild plant response rating",[7]; [14],60
same,"Plant response rating, Mustard, Wild",[7]; [15],90
same,"Plant response rating, Mustard, Wild",[7]; [16],100
same,"Plant response rating (scale of 0 to 100), Mustard, Wild","[7]; Preemergence, 31 g ai/ha",5
same,"Plant response rating (scale of 0 to 100), Mustard, Wild","[7]; Preemergence, 62 g ai/ha",75
same,"Plant response rating, Mustard, Wild",[7]; [18],100
same,"Plant response rating, Mustard, Wild",[7]; [19],100
same,"Plant response rating, Mustard, Wild",[7]; [20],85
same,Chamomile plant response rating,[8]; [14],80
same,"Plant response rating, Chamomile",[8]; [15],95
same,"Plant response rating, Chamomile",[8]; [16],100
same,"Plant response rating, Chamomile",[8]; [20],85
same,"Wheat, Spring plant response rating",[9]; [14],5
same,"Plant response rating, Wheat, Spring",[9]; [15],25
same,"Plant response rating, Wheat, Spring",[9]; [16],30
same,"Plant response rating (scale of 0 to 100), Wheat, Spring","[9]; Preemergence, 31 g ai/ha",0
same,"Plant response rating (scale of 0 to 100), Wheat, Spring","[9]; Preemergence, 62 g ai/ha",5
same,"Plant response rating, Wheat, Spring",[9]; [18],20
same,"Plant response rating, Wheat, Spring",[9]; [19],40
same,"Plant response rating, Wheat, Spring",[9]; [20],15
same,Field Violet plant response rating,[10]; [14],90
same,"Plant response rating, Field Violet",[10]; [15],100
same,"Plant response rating, Field Violet",[10]; [16],100
same,"Plant response rating (scale of 0 to 100), Field Violet","[10]; Preemergence, 31 g ai/ha",85
same,"Plant response rating (scale of 0 to 100), Field Violet","[10]; Preemergence, 62 g ai/ha",100
same,"Plant response rating, Field Violet",[10]; [18],100
same,"Plant response rating, Field Violet",[10]; [19],100
same,"Plant response rating, Field Violet",[10]; [20],95
same,"Buckwheat, Wild plant response rating",[11]; [14],95
same,"Plant response rating, Buckwheat, Wild",[11]; [15],100
same,"Plant response rating, Buckwheat, Wild",[11]; [16],100
same,"Plant response rating (scale of 0 to 100), Buckwheat, Wild","[11]; Preemergence, 31 g ai/ha",0
same,"Plant response rating, Buckwheat, Wild",[11]; [17],20
same,"Plant response rating, Buckwheat, Wild",[11]; [18],30
same,"Plant response rating, Buckwheat, Wild",[11]; [19],75
same,"Plant response rating, Buckwheat, Wild",[11]; [20],95
same,Field Poppy plant response rating,[12]; [14],45
same,"Plant response rating, Field Poppy",[12]; [15],75
same,"Plant response rating, Field Poppy",[12]; [16],85
same,"Plant response rating (scale of 0 to 100), Field Poppy","[12]; Preemergence, 31 g ai/ha",100
same,"Plant response rating (scale of 0 to 100), Field Poppy","[12]; Preemergence, 62 g ai/ha",100
same,"Plant response rating, Field Poppy",[12]; [18],100
same,"Plant response rating, Field Poppy",[12]; [19],100
same,"Plant response rating, Field Poppy",[12]; [20],50
same,Russian Thistle plant response rating,[13]; [14],60
same,"Plant response rating, Russian Thistle",[13]; [15],75
same,"Plant response rating, Russian Thistle",[13]; [16],90
same,"Plant response rating (scale of 0 to 100), Russian Thistle","[13]; Preemergence, 31 g ai/ha",0
same,"Plant response rating (scale of 0 to 100), Russian Thistle","[13]; Preemergence, 62 g ai/ha",20
same,"Plant response rating, Russian Thistle",[13]; [18],35
same,"Plant response rating, Russian Thistle",[13]; [19],50
same,"Plant response rating, Russian Thistle",[13]; [20],75
